Activity data for two compounds are collected here from ChEMBL document CHEMBL1240316, “An oxidation-sensing mechanism is used by the global regulator MgrA in Staphylococcus aureus” (2006).

Format in all cases: functional, organism-based
In experiment [1] the test system is Staphylococcus aureus. The experiment can be described thus: Antimicrobial activity against Staphylococcus aureus expressing mgrA C12S mutant gene assessed as visible growth at 0.25 ug/ml after 24 hrs.
Experiment [2] relates to Staphylococcus aureus. Description: Antimicrobial activity against Staphylococcus aureus expressing mgrA C12S mutant gene assessed as visible growth at 0.35 ug/ml after 24 hrs.
In experiment [3] the test system is Staphylococcus aureus. Description: Antimicrobial activity against Staphylococcus aureus expressing mgrA C12S mutant gene assessed as visible growth at 0.45 ug/ml after 24 hrs.
For experiment [4], the system named is Staphylococcus aureus. The experiment can be described thus: Antimicrobial activity against Staphylococcus aureus expressing mgrA C12S mutant gene assessed as visible growth at 0.75 ug/ml after 24 hrs.
For experiment [5], the system named is Staphylococcus aureus. The experiment can be described thus: Antimicrobial activity against Staphylococcus aureus expressing mgrA C12S mutant gene assessed as visible growth at 0.75 ug/ml after 24 hrs in presence of 20 uM paraquat.
Experiment [6] has as its system Staphylococcus aureus. Description: Antimicrobial activity against Staphylococcus aureus expressing mgrA C12S mutant gene harboring Pyj335-His-mgrAC12S assessed as visible growth at 0.20 ug/ml after 24 hrs in presence of 100 uM hydrogen peroxide.
Experiment [7] relates to Staphylococcus aureus. Description: Antimicrobial activity against Staphylococcus aureus expressing mgrA C12S mutant gene assessed as visible growth at 0.20 ug/ml after 24 hrs in presence of 25 uM paraquat.
Experiment [8] deals with Staphylococcus aureus. The experiment can be described thus: Antimicrobial activity against Staphylococcus aureus expressing mgrA C12S mutant gene harboring plasmid Pyj335 assessed as visible growth at 0.65 ug/ml after 24 hrs.
The subject of experiment [9] is Staphylococcus aureus. Description: Antimicrobial activity against Staphylococcus aureus expressing mgrA C12S mutant gene harboring Pyj335-His-mgrA assessed as visible growth at 0.25 ug/ml after 24 hrs.
Experiment [10] deals with Staphylococcus aureus. Description: Antimicrobial activity against Staphylococcus aureus expressing mgrA C12S mutant gene harboring Pyj335-His-mgrA assessed as visible growth at 0.35 ug/ml after 24 hrs.
Experiment [11] has as its system Staphylococcus aureus. Description: Antimicrobial activity against Staphylococcus aureus expressing mgrA C12S mutant gene harboring Pyj335-His-mgrA assessed as visible growth at 0.35 ug/ml after 24 hrs in presence of 20 uM paraquat.
Experiment [12] has as its system Staphylococcus aureus. The experiment can be described thus: Antimicrobial activity against Staphylococcus aureus expressing mgrA C12S mutant gene harboring Pyj335-His-mgrA assessed as visible growth at 0.65 ug/ml after 24 hrs.
In experiment [13] the test system is Staphylococcus aureus. Description: Antimicrobial activity against Staphylococcus aureus assessed as visible growth at 0.6 ug/ml after 24 hrs.
Experiment [14] has as its system Staphylococcus aureus. The experiment can be described thus: Antimicrobial activity against Staphylococcus aureus assessed as visible growth at 0.6 ug/ml after 24 hrs in presence of 20 uM paraquat.
The test system of experiment [15] is Staphylococcus aureus. Description: Antimicrobial activity against Staphylococcus aureus assessed as visible growth at 1.4 ug/ml after 24 hrs in presence of 20 uM paraquat.
Experiment [16] relates to Staphylococcus aureus. Description: Antimicrobial activity against Staphylococcus aureus assessed as visible growth at 1.8 ug/ml after 24 hrs.
For experiment [17], the system named is Staphylococcus aureus. The experiment can be described thus: Antimicrobial activity against Staphylococcus aureus expressing mgrA C12S mutant gene assessed as visible growth at 1.4 ug/ml after 24 hrs in presence of 20 uM paraquat.
Experiment [18] relates to Staphylococcus aureus. The experiment can be described thus: Antimicrobial activity against Staphylococcus aureus assessed as visible growth at 1.1 ug/ml after 24 hrs in presence of 100 uM hydrogen peroxide.
Experiment [19] relates to Staphylococcus aureus. The experiment can be described thus: Antimicrobial activity against Staphylococcus aureus expressing mgrA C12S mutant gene assessed as visible growth at 2.6 ug/ml after 24 hrs.
For experiment [20], the system named is Staphylococcus aureus. Description: Antimicrobial activity against Staphylococcus aureus expressing mgrA C12S mutant gene harboring plasmid Pyj335 assessed as visible growth at 2.2 ug/ml after 24 hrs in presence of 20 uM paraquat.
Experiment [21] deals with Staphylococcus aureus. Description: Antimicrobial activity against Staphylococcus aureus expressing mgrA C12S mutant gene harboring Pyj335-His-mgrA assessed as visible growth at 2.2 ug/ml after 24 hrs.

The source made the active and inactive calls. The rule behind the calls is not given here.

With `O=C(O)c1cn(C2CC2)c2cc(N3CCNCC3)c(F)cc2c1=O` [CIPROFLOXACIN], the result in the experiment on Staphylococcus aureus [1], with Staphylococcus aureus [2], with Staphylococcus aureus [3], in the experiment with Staphylococcus aureus [7], in the experiment with Staphylococcus aureus [8] and in the experiment with Staphylococcus aureus [9] was inactive. Further, the outcome in the experiment with Staphylococcus aureus [11] was inactive. The result in the experiment with Staphylococcus aureus [4], in the experiment with Staphylococcus aureus [5], in the experiment with Staphylococcus aureus [6], in the experiment with Staphylococcus aureus [10] and in the experiment on Staphylococcus aureus [12] was Active.
As to `CN[C@H](CC(C)C)C(=O)N[C@H]1C(=O)N[C@@H](CC(N)=O)C(=O)N[C@H]2C(=O)N[C@H]3C(=O)N[C@H](C(=O)N[C@H](C(=O)O)c4cc(O)cc(O)c4-c4cc3ccc4O)[C@H](O)c3ccc(c(Cl)c3)Oc3cc2cc(c3O[C@@H]2O[C@H](CO)[C@@H](O)[C@H](O)[C@H]2O[C@H]2C[C@](C)(N)[C@H](O)[C@H](C)O2)Oc2ccc(cc2Cl)[C@H]1O` [VANCOMYCIN], the result in the experiment with Staphylococcus aureus [13], with Staphylococcus aureus [14], in the experiment on Staphylococcus aureus [15], with Staphylococcus aureus [17] and with Staphylococcus aureus [20] was inactive. Moreover, the result in the experiment with Staphylococcus aureus [16], in the experiment with Staphylococcus aureus [18], in the experiment on Staphylococcus aureus [19] and in the experiment with Staphylococcus aureus [21] was Active.
